Assay results from US6462032B1, “Cyclic regimens utilizing indoline derivatives” (Wyeth, priority 1999, dated 2002).
pIC50: −log10 of the molar value. Where “and” joins values, the source holds several entries; their conditions need not be identical. Equal values may be shown once.

Assays:
[1] = system: rat uterine decidualization; assay: Rat decidualization assay; conditions: ovariectomized rats, s.c.; for Estimated average EC50: average of dose-response curves; for EC50: uterine wet weight (decidual response), individual studies
T47D cells = assay: T47D cell proliferation assay (BrdU incorporation); format: cell-based; conditions: decrease in trimegestone induced BrdU incorporation, individual experiments
Protocol: 3. T47D Cell Proliferation Assay
The objective of this assay is the determination of progestational and antiprogestational potency by using a cell proliferation assay in T47D cells. A compound's effect on DNA synthesis in T47D cells is measured.
DMEM:F12(1:1) (GIBCO, BRL) supplemented with 10% (v/v) fetal bovine serum (not heat-inactivated), 100 U/ml penicillin, […], and 2 mM GlutaMax (GIBCO, BRL).
Minimum Essential Medium (MEM) (#51200-038GIBCO, BRL) phenol red-free supplemented with 0.5% charcoal stripped fetal bovine serum, 100 U/ml penicillin, […] streptomycin, and 2 mM GlutaMax (GIBCO, BRL). […]
At the end of BrdU labeling, the medium is removed and BrdU incorporation is measured using a cell proliferation ELISA kit (#RPN 250, Amersham Life Science) according to manufacturer's instructions. […] Then 25 μl of 1 M sulfuric acid is added to each well to stop color reaction and optical density is read in a plate reader at 450 nm within 5 min.
Square root-transformed data are used for analysis of variance and nonlinear dose response curve fitting for both agonist and antagonist modes. […] EC50 or IC50 values are calculated from the retransformed values.
Trimegestone and medroxyprogesterone acetate (MPA) are reference progestins and RU486 is the reference antiprogestin. All reference compounds are run in fill dose-response curves and the EC50 or IC50 values are calculated.

melting point [°C]	Estimated average EC50 [1] [mg/kg. s.c.]	pIC50 (T47D cells)	SMILES	EC50 [1]
–	0.10	–	C#C[C@]1(O)CC[C@H]2[C@@H]3CCC4=CC(=O)CC[C@@H]4[C@H]3CC[C@@]21CC [Levonorgestrel, levonorgestrel]	0.08 mg/kg, s.c. and 0.12 mg/kg, s.c. and 0.09 mg/kg, s.c. (2×)
–	0.10	–	C#C[C@]1(O)CC[C@H]2[C@@H]3CCC4=CC(=O)CC[C@@H]4[C@H]3C(=C)C[C@@]21CC [3-Ketodesogestrel, 3-ketodesogestrel]	0.10 mg/kg, s.c. and 0.06 mg/kg, s.c. and 0.11 mg/kg, s.c.

Second part, the molecule before the results:

SMILES	melting point [°C]	Estimated average EC50 [1] [mg/kg. s.c.]	pIC50 (T47D cells)	EC50 [1]
O=C1CCC(c2cc(F)cc(Br)c2)CC12CNc1ccccc12 (stereo not shown) [Example 28, 5-(3-Bromo-5-fluorophenyl)spiro[cyclohexane-1,3-[3H]indol]-2(1′H)-one]	194 to 196	–	–	–
CC#C[C@]1(O)CC[C@H]2[C@@H]3CCC4=CC(=O)CCC4=C3[C@@H](c3ccc(N(C)C)cc3)C[C@@]21C [RU486]	–	–	10.80 and 10.74	–
CCC1C(=O)Nc2ccc(-c3cccc(Cl)c3)cc21 (stereo not shown) [Example 6, 5-(3Chloro-phenyl)-3-ethyl-1,3-dihydro-indol-2-one]	100 to 101	–	–	–
